The source of these data is US11884710B2, “Peptide compounds and methods of use in wound healing” (priority 2013, dated 2024).

The test system of assay [1] is P. aeruginosa ATCC 27853. Type of assay: cell-based, Pseudomonas aeruginosa. The following applies: Pseudomonas; inoculum 1×10^6 CFU/ml; 60 to 180 minute incubation. The method, then: (§1) In vitro bactericidal activity: The three peptide compounds BCC01-5RMP (SEQ ID NO:23), BCC002-5RMP (SEQ ID NO:21), and BCC003-5RMP (SEQ ID NO:22) were assayed for in vitro bactericidal activity against Pseudomonas aeruginosa, Escherichia coli, Salmonella typhimurium, and Acinetobacter baumannii. The starting inoculum for all experiments was 1×10^6 colony forming units (CFU)/ml. The CFU remaining at the end of 60 to 180 minute incubation was determined, and the data plotted as a log reduction in CFU/ml.
Table 4 further compares the activity of several other compounds, including the “5R” versions of BCC01, i.e., SEQ ID NO:20 (which comprises SEQ ID NO: 7 with five additional arginines), the “5R” version of BCC002 (i.e., SEQ ID NO:18, which comprises SEQ ID NO: 1 with five additional arginines), and the 5RMP versions of BCC01 (SEQ ID NO: 23) and BCC002 (SEQ ID NO: 21). The data generally indicate the superiority of BCC003-5RMP (SEQ ID NO:22) and BCC002-5RMP (SEQ ID NO: 21) and the superiority of the 5R or 5RMP versions of the peptide over the “AEEP only” peptide against P. aeruginosa.

Assay [2] deals with Pseudomonas LPS. As to the kind of experiment: LPS binding, Limulus Amebocyte Lysate (LAL) assay. To be noted: LAL method. The method, then:
(§2) The well-characterized response of RAW264.7 macrophage cells was used to produce tumor necrosis-factor-alpha (TNF-α) in response to LPS to determine whether the peptides could dampen the release of this cytokine. […] Importantly, pre-treatment (3 hours prior to LPS addition) as well as post-treatment of the RAW264.7 cells (3 hours post LPS addition) with peptide dampened the cytokine release. […] The finding that the novel peptides bind and neutralize the effect of Pseudomonas LPS is of critical importance since this ensures that the novel therapeutic peptide compounds described herein will not only kill the bacteria, but will also neutralize the LPS endotoxin released by the bacteria which plays such an important role in the rapid progression of sepsis.
(§3) BCC01-5RMP (SEQ ID NO:23), BCC002-5RMP (SEQ ID NO:21), and BCC003-5RMP (SEQ ID NO:22) were tested for their ability to bind lipopolysaccharide (LPS) using the limulus amebocyte lysate method (LAL). […] There was no statistical difference in their ability to bind LPS using the LAL technique. The ability of the peptides to neutralize LPS was assessed by determining their ability to attenuate the release of tumor necrosis factor-alpha (TNF-α) from LPS-stimulated RAW264.7 cells (a mouse macrophage cell line). […] No significant differences were observed between the three peptides to neutralize LPS as measured by cytokine release. Peptides based on sequence 120-146 (SEQ ID NOS:28-31) also bind and neutralize Pseudomonas LPS.

For assay [3], the system named is Salmonella typhimurium. In words: In vitro bactericidal activity against Salmonella typhimurium. Type of assay: cell-based. The following applies: inoculum 1×10^6 CFU/ml, 60 to 180 minute incubation. The procedure:
as §1

Assay [4] concerns release of TNF-α from LPS-stimulated RAW264.7 cells. In words: LPS neutralization: TNF-α release from LPS-stimulated RAW264.7 cells. Type of assay: cell-based, mouse. The method, then: as §2, §3
Assay [5] has as its system Escherichia coli. In words: In vitro bactericidal activity against Escherichia coli. Type of assay: cell-based. The following applies: E. coli; inoculum 1×10^6 CFU/ml; 60 to 180 minute incubation. The method, then: as §1
The subject of assay [6] is Acinetobacter baumannii. As to the kind of experiment: In vitro bactericidal activity against Acinetobacter baumannii. Format: cell-based. To be noted: inoculum 1×10^6 CFU/ml, 60 to 180 minute incubation. The method, then: as §1
Assay [7] has as its system P. aeruginosa (ATCC 27853). In words: Mouse model of Pseudomonas (bacterial) keratitis. Type of assay: in vivo. To be noted: C57/BL6 mice; topical peptide 0.25 to 0.75 mg/ml; 48 hours post-infection. The method, then: A circular wound was created on the mouse cornea by removing the epithelium and infected with 10^5 colony forming units (CFU) of P. aeruginosa (ATCC® 27853™ (American Type Culture Collection, Manassas, Va.)). Infected wounds were treated with saline (0.9% sodium chloride, vehicle control) or saline containing indicated concentrations of peptide every 15 minutes for 2 hours, then every 30 minutes for 3 hours on the first day. Infected wounds were treated twice on the second day and once on the third day. Mice were killed at 48 hours post-infection, and CFU/eye were quantified. The means were plotted and are representative of 5 to 9 mice per group. Mann Whitney test was performed for each group as compared to the saline control group. *P=0.014. In compound names such as BCC02-5RMP used herein, “R” represents arginine, and “MP” represents a small PEG molecule as defined elsewhere herein (such as, for example but not by way of limitation, “AEEP”).
(§4) A circular wound was created on the mouse cornea by removing the epithelium, and the wound was infected with 10^5 CFU of P. aeruginosa (ATCC® 27853™ (American Type Culture Collection, Manassas, Va.)). Infected wounds were treated with saline or saline containing indicated concentrations (2, 5, 10, and 20 mg/ml) of peptide every 30 minutes for 6 hours on the first day. Infected wounds were treated twice on the second day and once on the third day. Mice were killed at 48 hours post-infection, and the CFU/eye were quantified. The means are plotted and are representative of 5 mice per group. Mann Whitney test was performed for each group as compared to the saline control group. *P=0.015 and **P=0.097.
as §4, with “representative of 4 to 5 mice” for “representative of 5 mice”, “control group.” for “control group. *P=0.015 and **P=0.097.”
as §4, with “group. **P=0.0079 by” for “group.”, “test” for “test was performed for each group”, “group.” for “group. *P=0.015 and **P=0.097.”
A circular wound (2 mm) was created on the mouse cornea by removing the epithelium and infecting the wound with 10^5 CFU of P. aeruginosa (ATCC® 27853™ (American Type Culture Collection, Manassas, Va.)). Infected wounds were treated with saline or saline containing indicated concentrations of peptide every 15 minutes for 2 hours, then every 30 minutes for 3 hours on the first day. […] Mice were killed at 48 hours post-infection, and the colony forming units per eye (CFU/eye) were quantified. […]

Assay [8] deals with Pseudomonas clinical isolate B64. In words: BIOSCREEN C growth assay, peptide plus antibiotic combinations. Format: cell-based, Pseudomonas aeruginosa. The procedure:
FIGS. 28A and 28B show the effect of BCC002-5R-MP (SEQ ID NO:21) in combination with Cefotaxime on MIC using Pseudomonas clinical isolate B64. Cefotaxime (Cefo) and peptide combinations included a constant amount of Cefotaxime (2.81 μg/ml) with suboptimal amounts of peptide (0, 0.34, 1.01, and 3.04 μg/ml). […] FIG. 28B is a histogram showing Fractional area (FA), which is an indication of the MIC.
FIG. 29B is a histogram showing Fractional area (FA), which is an indication of the MIC.
FIGS. 30A and 30B show the effect of BCC02-5R-MP (SEQ ID NO:21) in combination with Levofloxacin (Levo) and peptide combinations included a constant amount of Levofloxacin (3.6 μg/ml) with suboptimal amounts of peptide (0, 0.34, 1.01, 3.04 μg/ml). […] FIG. 30B is a histogram showing Fractional area (FA), which is an indication of the MIC.
The peptide and antibiotics were set up in the wells of the microtiter plate at starting ratios of MIC equivalents of antibiotic:peptide at 3:1, 1:1, and 1:3. They were serially diluted to concentrations well below suboptimal/sublethal levels of the antibiotic and peptide. The organism was added (1×10^5 CFU/well), the BIOSCREEN C™ assay (Growth Systems USA, Piscataway, N.J.) was performed, and data was collected over 24 hours.

Square brackets hold non-standard residues; d marks the D form. Peptide text beside a SMILES is read from it. PEG2 = NCCOCCOCCC(=O)O

Take `CC[C@H](C)[C@H](NC(=O)[C@H](CC(C)C)NC(=O)[C@H](C)NC(=O)CNC(=O)CNC(=O)[C@H](CS)NC(=O)[C@H](Cc1ccccc1)NC(=O)[C@H](Cc1c[nH]cn1)NC(=O)[C@H](CCCNC(=N)N)NC(=O)CNC(=O)[C@H](CCC(N)=O)NC(=O)[C@H](CC(N)=O)NC(=O)[C@H](CCCNC(=N)N)NC(=O)[C@H](CCCNC(=N)N)NC(=O)[C@H](CCCNC(=N)N)NC(=O)[C@H](CCCNC(=N)N)NC(=O)CCOCCOCCNC(=O)CCOCCOCCN)C(=O)N[C@@H](Cc1c[nH]cn1)C(=O)N[C@@H](C)C(=O)N[C@@H](CCCNC(=N)N)C(=O)N[C@@H](Cc1ccccc1)C(=O)N[C@H](C(=O)N[C@@H](CCSC)C(=O)N[C@H](C(=O)N[C@@H](C)C(=O)N[C@@H](C)C(=O)N[C@@H](CO)C(=O)N[C@@H](CO)C(=O)N[C@@H](Cc1ccccc1)C(=O)N[C@@H](CCC(N)=O)C(=O)N[C@@H](CCCNC(=N)N)C(=O)O)[C@@H](C)O)C(C)C` [BCC03-5RMP] (H-[PEG2][PEG2]RRRRNQGRHFCGGALIHARFVMTAASSFQR-OH): the “in vitro bactericidal activity, in words” value is given as “most active” in assay [1]; “strong, but lesser activity” in assay [3]; “strong, but lesser activity” in assay [5]; “most active” in assay [6]. The “binding of Pseudomonas LPS” value in assay [2] is on record as “bound Pseudomonas LPS”. For the same molecule, the “neutralization of LPS: attenuation of TNF-α release” value in assay [4] was “attenuate the release of TNF-α”.

As for `CC[C@H](C)[C@H](NC(=O)[C@H](CC(C)C)NC(=O)[C@H](C)NC(=O)CNC(=O)CNC(=O)[C@H](CO)NC(=O)[C@H](Cc1ccccc1)NC(=O)[C@H](Cc1c[nH]cn1)NC(=O)[C@H](CCCNC(=N)N)NC(=O)CNC(=O)[C@H](CCC(N)=O)NC(=O)[C@H](CC(N)=O)NC(=O)[C@H](CCCNC(=N)N)NC(=O)[C@H](CCCNC(=N)N)NC(=O)[C@H](CCCNC(=N)N)NC(=O)[C@H](CCCNC(=N)N)NC(=O)CCOCCOCCNC(=O)CCOCCOCCN)C(=O)N[C@@H](Cc1c[nH]cn1)C(=O)N[C@@H](C)C(=O)N[C@@H](CCCNC(=N)N)C(=O)N[C@@H](Cc1ccccc1)C(=O)N[C@H](C(=O)N[C@@H](CCSC)C(=O)N[C@H](C(=O)N[C@@H](C)C(=O)N[C@@H](C)C(=O)N[C@@H](CO)C(=O)N[C@@H](CS)C(=O)N[C@@H](Cc1ccccc1)C(=O)N[C@@H](CCC(N)=O)C(=O)N[C@@H](CCCNC(=N)N)C(=O)O)[C@@H](C)O)C(C)C` [BCC02-5RMP] (H-[PEG2][PEG2]RRRRNQGRHFSGGALIHARFVMTAASCFQR-OH; C-terminus assumed), the “in vitro bactericidal activity, in words” value in assay [1] is “most active”; in assay [3] it was “strong, but lesser activity”; in assay [5], “strong, but lesser activity”; in assay [6], “most active”. The “CFU/eye, in words” value in assay [7] was “effectively killed all bacteria and cured the infection”. The “binding of Pseudomonas LPS” value in assay [2] is “bound Pseudomonas LPS”. Besides, the “neutralization of LPS: attenuation of TNF-α release” value in assay [4] is on record as “attenuate the release of TNF-α”. In assay [8] (3.04 μg/ml of peptide with Cefotaxime 2.81 μg/ml), the “sensitivity of the bacterium to Cefotaxime with peptide, in words” value is listed as “now sensitive”. The “effect of peptide on the killing effect of Cefotaxime, in words” value in assay [8] (0.34 and 1.0 μg/ml of peptide with Cefotaxime 2.81 μg/ml) is recorded as “no statistical effect”.
